Reference: patent US8835643B2, “Molecules, compositions, and methods for light absorption” (Empire Technology Development LLC, priority 2012, dated 2014)

Experiments:
[1] = tested on: back of the rats
Description: Phototoxicity of various azo-compounds was examined.
The UV source for the in vivo testing involved a 400 W high-pressure mercury lamp (LCE-9, Zhengzhou, China) with a filter transmitting the wavelength between 320-380 nm. Four test sites (4 cm^2) were selected on the back of the rats. The sites were located between the breast and scapulae and lateral to the midline. The test product was applied at the amount of 20 ul/cm^2 (0.06 mg CDBA) and spread uniformly over one test site using a finger cot. The product was allowed to dry for 15 min before starting the UV exposure. On each test site, four squares (1 cm×1 cm) were defined, on an unprotected skin area of the rat dorsal and on a sunscreen-protected area. The skin was kept at a distance of 15 cm from the light source and the time of illumination was 5 hours on the test sites.

[2] = Critical wavelength method, evaluation as UVA protector; format: physicochemical
Source text: The term “critical wavelength method” denotes a method of measuring of the breadth of UVA protection using the “critical wavelength”. To obtain this value, the absorbance of the molecule or material is integrated (summed) from 290 nm across the UV wavelengths until the sum reaches 90% of the total absorbance of the sunscreen in the UV region of 290-400 nm. The wavelength where the summed absorbance reaches 90% of the total absorbance is the “critical wavelength”. The critical wavelength can be defined by the following equation: […]
The critical wavelength method was then employed for evaluation of the molecule CDBA as a UVA protector. The results are shown in FIGS. 5A-5C, which are graphs depicting the data using the Critical Wavelength method to evaluate CDBA as a UVA protector. […] Its 90% value was 124.030. […] Given this, the λc was determined to be between 389-390 nm. Furthermore, the results can be summarized as follows: • After 6 minutes of irradiation of UVA radiation (356 nm or 357 nm), 100% of the composition was isomeric. • After 8 minutes of irradiation of visible light radiation (442 nm or 443 nm), 99% of the molecules were isomeric. • After 3 hours of daylight irradiation, more than 90% of the molecules were isomeric, trans.

[3] = Molar absorptivity in CHCl3 (UV-Vis spectrophotometer); format: physicochemical; details: for κ (molar absorptivity): CHCl3; for λmax (λCHCl3): in CHCl3
Description: The tests included observing the UVA-absorbing condition before and after light exposure and noting the molar absorption coefficient. […] The ultraviolet spectra of CHCl3 were measured using an UV-Vis spectrophotometer (U3010, Hitachi, Japan). All experiments were carried out at room temperature unless otherwise stated.

[4] = Photoisomerization tests under UV, visible and natural light; format: physicochemical; details: for time of UV light irradiation to convert trans into cis form / time of visible light irradiation to reach the photostationary state of trans form: 400 W Hg lamp; for time of UV light irradiation to convert trans into cis form: 275-400 nm filter, room temperature; for time of visible light irradiation to reach the photostationary state of trans form: filter >400 nm; for time of natural light irradiation to reach the photostationary state of trans form: fluorescent lamps, about 500 lx
Description: Photoisomerization tests were carried out on compounds PyB (Formula XIV) and iQB (Formula XV), which were synthesized and characterized by MS, IR, ^1H NMR spectra.
The tests included observing the UVA-absorbing condition before and after light exposure and noting the molar absorption coefficient. The test also included determining the photo isomerization conditions under illumination of UVA, visible light and daylight. The compounds were irradiated with a 400 W high-pressure Hg lamp (LCE-9, Zhengzhou, China). A bandpass filter (λT=275˜400 nm) was used for UV light and a bandpass filter (λT>400 nm) was used for visible light. The light distance was 20 cm. For natural light irradiation, samples were irradiated with fluorescent lamps (21 W×2, luminous intensity about 500 lx), and the light distance was 120 cm. The ultraviolet spectra of CHCl3 were measured using an UV-Vis spectrophotometer (U3010, Hitachi, Japan). All experiments were carried out at room temperature unless otherwise stated.
It was estimated from the spectral change that trans-PyB and iQB were converted into the cis-PyB or iQB after 6 or 8 min (respectively) of UV light irradiation (FIGS. 3A and 4A); it took 8 min of visible light irradiation to reach the photostationary state of trans-PyB or iQB (FIGS. 3B and 4B) and 3.0 h of natural light irradiation to reach the photostationary state of trans-PyB or iQB (FIGS. 3C and 4C).

SMILES | κ (molar absorptivity) ([3]; at 442 nm) | κ (molar absorptivity) ([3]; at λmax) | A (absorbance) ([3]; at λmax, CHCl3, C 0.01 mg/mL) | λmax (λCHCl3) [3] | time of UV light irradiation to convert trans into cis form [4] | time of visible light irradiation to reach the photostationary state of trans form [4] | time of natural light irradiation to reach the photostationary state of trans form [4] | further results
CCN(CC)CCCCOc1ccc(N=Nc2ccc(C(=O)OC3CCC4(C)C(=CCC5C4CCC4(C)C(C(C)CCCC(C)C)CCC54)C3)cc2)cc1 (centres unmarked) [CDBA, 4-cholesterocarbonyl-4′-(N,N-diethylaminebutyloxyl)azobenzene] | 3174 L/mol/cm | 24726 L/mol/cm | 0.335 | 357 (λmax) nm | – | – | – | protection of skin from UV irradiation ([1]; rat back, in liposome, 20 ul/cm2 (0.06 mg CDBA), 320-380 nm for 5 h, seen three days after): effectively protected skin from UV irradiation; adverse effect on skin ([1]; rat, in vivo): no adverse effect including allergy; integrated area ([2]; 290-389 (FIG. 5C)): 123.707; integrated area ([2]; 290-390 (FIG. 5B)): 125.025; 90% value of integrated area ([2]; 290 nm to 400 nm (FIG. 5A)): 124.030; integrated area ([2]; 290 nm to 400 nm (FIG. 5A)): 137.811; critical wavelength λc ([2]; wavelength where summed absorbance from 290 nm reaches 90% of the 290-400 nm total): 389-390 nm; A (absorbance) ([3]; at 442 nm, CHCl3, C 0.01 mg/mL): 0.043
CC(C)CCCC(C)C1CCC2C3CC=C4CC(OC(=O)c5ccc(N=Nc6ccc(OCCCC[n+]7ccccc7)cc6)cc5)CCC4(C)C3CCC12C.[Br-] (centres unmarked) [PyB] | 2227 L/mol/cm | 14464 L/mol/cm | – | 356 (λmax) nm | 6 min | 8 min | 3.0 h | A (absorbance) ([3]; at 442 nm, CHCl3, C 0.03 mg/mL): 0.081; A (absorbance) ([3]; at λmax, CHCl3, C 0.03 mg/mL): 0.526
COc1ccc(C(=O)CC(=O)c2ccc(C(C)(C)C)cc2)cc1 [avobenzone, reference compound] | – | 23870 L/mol/cm | 0.770 | 358 (λmax) nm | – | – | – | κ (molar absorptivity) ([3]; at 320 nm): 10354 L/mol/cm; A (absorbance) ([3]; at 320 nm, CHCl3, C 0.01 mg/mL): 0.334; κ (molar absorptivity) ([3]; at 360 nm): 23715 L/mol/cm; A (absorbance) ([3]; at 360 nm, CHCl3, C 0.01 mg/mL): 0.765; κ (molar absorptivity) ([3]; at 400 nm): 2294 L/mol/cm; A (absorbance) ([3]; at 400 nm, CHCl3, C 0.01 mg/mL): 0.074
CC(C)CCCC(C)C1CCC2C3CC=C4CC(OC(=O)c5ccc(N=Nc6ccc(OCCCC[n+]7ccc8ccccc8c7)cc6)cc5)CCC4(C)C3CCC12C.[Br-] (centres unmarked) [iQB] | – | 21176 L/mol/cm | 0.242 | 357 (λmax) nm | 8 min | 8 min | 3.0 h | –
